Patent US8263606B2 (Xenon Pharmaceuticals Inc., priority 2008, dated 2012)
Structures can show the parent of a compound that is named as a salt.

What was measured:
CYP3A4 = CYP3A4 (Homo sapiens, UniProt P08684); experiment: Cytochrome P450 (CYP450) Inhibition Assay, CYP3A4 (Vivid fluorescence, BOMCC substrate); settings: human, P450 Baculosomes (recombinant CYP3A4), probe BOMCC (Vivid substrate)
sodium channel = experiment: Guanidine influx assay (14C-guanidine radiotracer flux, in vitro); assay type: cell-based, human or rat; settings: guanidine influx assay using a known cell line that expresses a sodium channel
How it was run: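 Human or rat sodium channels stably expressed in endogenous or recombinant cells, plated ~100,000 cells/well for 20-24 h at 37 °C. Cells were treated with test agent in low-sodium choline HEPES saline plus aconitine and 14C-guanidine at ambient temperature, washed, and counted by scintillation; IC50 from 4-parameter logistic fit.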

CYP3A4, sequence (P08684 whole entry): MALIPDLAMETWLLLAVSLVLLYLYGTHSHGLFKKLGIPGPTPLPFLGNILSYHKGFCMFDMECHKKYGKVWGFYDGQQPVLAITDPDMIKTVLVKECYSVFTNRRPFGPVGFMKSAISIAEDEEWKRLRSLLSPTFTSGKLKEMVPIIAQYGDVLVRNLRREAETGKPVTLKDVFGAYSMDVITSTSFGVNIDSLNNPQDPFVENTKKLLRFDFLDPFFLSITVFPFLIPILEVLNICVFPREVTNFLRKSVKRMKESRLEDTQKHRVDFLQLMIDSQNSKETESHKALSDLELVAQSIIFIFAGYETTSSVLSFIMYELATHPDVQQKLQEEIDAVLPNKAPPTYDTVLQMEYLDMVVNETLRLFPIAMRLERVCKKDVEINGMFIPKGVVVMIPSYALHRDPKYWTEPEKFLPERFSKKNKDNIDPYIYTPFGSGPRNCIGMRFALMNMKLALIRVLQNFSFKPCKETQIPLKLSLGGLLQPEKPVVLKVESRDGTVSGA

Row | Structure (SMILES) | inhibition at 10 µM (CYP3A4) [%] | IC50 (sodium channel) [nM]
1 | CC(C)Oc1ccc2c(c1)OCC21C(=O)N(C[C@H]2CCCO2)c2ccccc21 (stereo partly drawn) [Example 11.54, 6-(1-methylethoxy)-1′-[(2R)-tetrahydrofuran-2-ylmethyl]spiro[1-benzofuran-3,3′-indol]-2′(1′H)-one] | < 50 | 100 to 1000
2 | CN1CCN(CN2C(=O)C3(COc4cc5c(cc43)OCO5)c3ccccc32)CC1 (stereo not shown) [Example 11.63, 1′-[(4-methylpiperazin-1-yl)methyl]spiro[furo[2,3-f][1,3]benzodioxole-7,3′-indol]-2′(1′H)-one hydrogen chloride] | > 50 | 1 to 100
3 | COc1cc2c(cc1C)[C@]1(CO2)C(=O)N(CN2CCN(C)CC2)c2ccccc21 [Example 11.65, (3R)-6-methoxy-5-methyl-1′-[(4-methylpiperazin-1-yl)methyl]spiro[1-benzofuran-3,3′-indol]-2′(1′H)-one hydrogen chloride] | > 50 | 100 to 1000
4 | CS(=O)(=O)Nc1cccc(CN2C(=O)C3(COc4cc5c(cc43)OCCO5)c3ccccc32)c1 (stereo not shown) [Example 11.94, N-{3-[(2′-oxo-2,3-dihydrospiro[furo[2,3-g][1,4]benzodioxine-8,3′-indol]-1′(2′H)-yl)methyl]phenyl}methanesulfonamide] | > 50 | 100 to 1000
5 | O=C1N(Cc2cccc[n+]2[O-])c2ccccc2C12COc1cc3c(cc12)OCCO3 (stereo not shown) [Example 11.95, 1′-[(1-oxidopyridin-2-yl)methyl]-2,3-dihydrospiro[furo[2,3-g][1,4]benzodioxine-8,3′-indol]-2′(1′H)-one] | < 50 | 100 to 1000
6 | Nc1cccnc1CN1C(=O)C2(COc3cc4c(cc32)OCCO4)c2ccccc21 (stereo not shown) [Example 11.97, 1′-[(3-aminopyridin-2-yl)methyl]-2,3-dihydrospiro[furo[2,3-g][1,4]benzodioxine-8,3′-indol]-2′(1′H)-one hydrobromide] | > 50 | 1 to 100
7 | CS(=O)(=O)Nc1cccnc1CN1C(=O)C2(COc3cc4c(cc32)OCCO4)c2ccccc21 (stereo not shown) [Example 11.98, N-{2-[(2′-oxo-2,3-dihydrospiro[furo[2,3-g][1,4]benzodioxine-8,3′-indol]-1′(2′H)-yl)methyl]pyridine-3-yl}methanesulfonamide] | > 50 | 100 to 1000
8 | O=C1N(CC2CCNCC2)c2ccccc2C12COc1cc3c(cc12)OCCO3 (stereo not shown) [Example 11.99, 1-(piperidin-4-ylmethyl)-2,3-dihydrospiro[furo[2,3-g][1,4]benzodioxine-8,3′-indol]-2′(1′H)-one hydrochloride] | < 50 | 1000 to 10000
9 | CN1CCC(CN2C(=O)C3(COc4cc5c(cc43)OCCO5)c3ccccc32)CC1 (stereo not shown) [Example 11.101, 1-[(1-methylpiperidin-4-yl)methyl]-2,3-dihydrospiro[furo[2,3-g][1,4]benzodioxine-8,3′-indol]-2′(1′H)-one hydrochloride] | < 50 | 1000 to 10000
10 | CN1CCC(CN2C(=O)C3(COc4cc(F)c(F)cc43)c3ccccc32)CC1 (stereo not shown) [Example 11.112, 5,6-difluoro-1′-[(1-methylpiperidin-4-yl)methyl]spiro[1-benzofuran-3,3′-indol]-2′(1′H)-one hydrochloride] | > 50 | 1 to 100
11 | COc1ccc(CCNC(=O)c2ccccc2CN2C(=O)C3(COc4cc5c(cc43)CCO5)c3ccccc32)cc1 (stereo not shown) [Example 12.22, N-[2-(4-methoxyphenyl)ethyl]-2-[(2′-oxo-5,6-dihydrospiro[benzo[1,2-b:5,4-b′]difuran-3,3′-indol]-1′(2′H)-yl)methyl]benzamide] | > 50 | 1000 to 10000
12 | O=C(NCCc1ccc(Cl)cc1)c1ccccc1CN1C(=O)C2(COc3cc4c(cc32)CCO4)c2ccccc21 (stereo not shown) [Example 12.24, N-[2-(4-chlorophenyl)ethyl]-2-[(2′-oxo-5,6-dihydrospiro[benzo[1,2-b:5,4-b′]difuran-3,3′-indol]-1′(2′H)-yl)methyl]benzamide] | > 50 | 1000 to 10000
13 | NC(=O)CN1C(=O)C2(COc3cc4c(cc32)CCO4)c2ccccc21 (stereo not shown) [Example 12.46, 2-(2′-oxo-5,6-dihydrospiro[benzo[1,2-b:5,4-b′]difuran-3,3′-indol]-1′(2′H)-yl)acetamide] | < 50 | 1000 to 10000

More lines, now with the values ahead:

Row | inhibition at 10 µM (CYP3A4) [%] | IC50 (sodium channel) [nM] | Structure (SMILES)
14 | < 50 | 1000 to 10000 | O=C1N(CC2CCNC2)c2ccccc2C12COc1cc3c(cc12)CCO3 (stereo not shown) [Example 11.61, 1′-(pyrrolidin-3-ylmethyl)-5,6-dihydrospiro[benzo[1,2-b:5,4-b′]difuran-3,3′-indol]-2′(1′H)-one]
15 | > 50 | 1 to 100 | O=C1N(C[C@@H]2CCCO2)c2ccccc2[C@@]12COc1cc3c(cc12)CCO3 [Example 11.68, (3R)-1-[(2S)-tetrahydrofuran-2-ylmethyl]-5,6-dihydrospiro[benzo[1,2-b:5,4-b′]difuran-3,3′-indol]-2′(1′H)-one]
16 | > 50 | 100 to 1000 | O=C(NCC1CCCCC1)c1cccc(CN2C(=O)C3(COc4cc5c(cc43)CCO5)c3ccccc32)c1 (stereo not shown) [Example 12, N-(cyclohexylmethyl)-3-[(2′-oxo-5,6-dihydrospiro[benzo[1,2-b:5,4-b′]difuran-3,3′-indol]-1′(2′H)-yl)methyl]benzamide]
17 | > 50 | 100 to 1000 | CC(CNC(=O)c1cccc(CN2C(=O)C3(COc4cc5c(cc43)CCO5)c3ccccc32)c1)c1ccccc1 (stereo not shown) [Example 12.5, 3-[(2′-oxo-5,6-dihydrospiro[benzo[1,2-b:5,4-b′]difuran-3,3′-indol]-1′(2′H)-yl)methyl]-N-(2-phenylpropyl)benzamide]
18 | > 50 | 100 to 1000 | C[C@H](NC(=O)c1cccc(CN2C(=O)C3(COc4cc5c(cc43)CCO5)c3ccccc32)c1)C1CCCCC1 (stereo partly drawn) [Example 12.6, N-[(1S)-1-cyclohexylethyl]-3-[(2′-oxo-5,6-dihydrospiro[benzo[1,2-b:5,4-b′]difuran-3,3′-indol]-1′(2′H)-yl)methyl]benzamide]
19 | > 50 | 1000 to 10000 | C[C@@H](NC(=O)c1cccc(CN2C(=O)C3(COc4cc5c(cc43)CCO5)c3ccccc32)c1)C1CCCCC1 (stereo partly drawn) [Example 12.7, N-[(1R)-1-cyclohexylethyl]-3-[(2′-oxo-5,6-dihydrospiro[benzo[1,2-b:5,4-b′]difuran-3,3′-indol]-1′(2′H)-yl)methyl]benzamide]
20 | > 50 | 1000 to 10000 | O=C(NCc1cccc(Cl)c1)c1ccccc1CN1C(=O)C2(COc3cc4c(cc32)CCO4)c2ccccc21 (stereo not shown) [Example 12.23, N-(3-chlorobenzyl)-2-[(2′-oxo-5,6-dihydrospiro[benzo[1,2-b:5,4-b′]difuran-3,3′-indol]-1′(2′H)-yl)methyl]benzamide]
21 | < 50 | 1000 to 10000 | COc1ccccc1NC(=O)c1ccc(CN2C(=O)C3(COc4cc5c(cc43)CCO5)c3ccccc32)cc1 (stereo not shown) [Example 12.25, N-(2-methoxyphenyl)-4-[(2′-oxo-5,6-dihydrospiro[benzo[1,2-b:5,4-b′]difuran-3,3′-indol]-1′(2′H)-yl)methyl]benzamide]
22 | > 50 | 1000 to 10000 | O=C(Nc1ccccc1C(F)(F)F)c1ccc(CN2C(=O)C3(COc4cc5c(cc43)CCO5)c3ccccc32)cc1 (stereo not shown) [Example 12.26, 4-[(2′-oxo-5,6-dihydrospiro[benzo[1,2-b:5,4-b′]difuran-3,3′-indol]-1′(2′H)-yl)methyl]-N-[2-(trifluoromethyl)phenyl]benzamide]
23 | < 50 | 100 to 1000 | O=C(Nc1ccccc1)c1ccc(CN2C(=O)C3(COc4cc5c(cc43)CCO5)c3ccccc32)cc1 (stereo not shown) [Example 12.27, 4-[(2′-oxo-5,6-dihydrospiro[benzo[1,2-b:5,4-b′]difuran-3,3′-indol]-1′(2′H)-yl)methyl]-N-phenylbenzamide]
24 | > 50 | 100 to 1000 | CNC(=O)c1ccc(CN2C(=O)C3(COc4cc5c(cc43)CCO5)c3ccccc32)cc1 (stereo not shown) [Example 12.28, N-methyl-4-[(2′-oxo-5,6-dihydrospiro[benzo[1,2-b:5,4-b′]difuran-3,3′-indol]-1′(2′H)-yl)methyl]benzamide]
25 | < 50 | 100 to 1000 | O=C(Nc1ccccc1F)c1ccc(CN2C(=O)C3(COc4cc5c(cc43)CCO5)c3ccccc32)cc1 (stereo not shown) [Example 12.29, N-(2-fluorophenyl)-4-[(2′-oxo-5,6-dihydrospiro[benzo[1,2-b:5,4-b′]difuran-3,3′-indol]-1′(2′H)-yl)methyl]benzamide]
26 | > 50 | 100 to 1000 | O=C(NCCc1cccs1)c1ccc(CN2C(=O)C3(COc4cc5c(cc43)CCO5)c3ccccc32)cc1 (stereo not shown) [Example 12.30, 4-[(2′-oxo-5,6-dihydrospiro[benzo[1,2-b:5,4-b′]difuran-3,3′-indol]-1′(2′H)-yl)methyl]-N-(2-thiophen-2-ylethyl)benzamide]
27 | > 50 | 1 to 100 | NC(=O)c1ccc(CN2C(=O)C3(COc4cc5c(cc43)CCO5)c3ccccc32)cc1 (stereo not shown) [Example 12.31, 4-[(2′-oxo-5,6-dihydrospiro[benzo[1,2-b:5,4-b′]difuran-3,3′-indol]-1′(2′H)-yl)methyl]benzamide]
28 | < 50 | 1000 to 10000 | O=C(Nc1ccc2c(c1)CCC2)c1ccc(CN2C(=O)C3(COc4cc5c(cc43)CCO5)c3ccccc32)cc1 (stereo not shown) [Example 12.32, N-(2,3-dihydro-1H-inden-5-yl)-4-[(2′-oxo-5,6-dihydrospiro[benzo[1,2-b:5,4-b′]difuran-3,3′-indol]-1′(2′H)-yl)methyl]benzamide]
29 | > 50 | 1000 to 10000 | O=C(c1ccc(CN2C(=O)C3(COc4cc5c(cc43)CCO5)c3ccccc32)cc1)N1CCOCC1 (stereo not shown) [Example 12.33, 1′-[4-(morpholin-4-ylcarbonyl)benzyl]-5,6-dihydrospiro[benzo[1,2-b:5,4-b′]difuran-3,3′-indol]-2′(1′H)-one]
